Consider one molecule from EP1127071B1, “COMPOUNDS WITH GROWTH HORMONE RELEASING PROPERTIES” (Novo Nordisk A/S, priority 1998, dated 2000).

The nature of this data set: Pharmacokinetics after intravenous and oral administration in fasted Beagle dogs. The class given is in vivo. As to conditions: compared with the compound of example 408 of WO 9723508. How it is done:
The pharmakokinetic data were obtained by the following procedure:
The pharmacokinetics of the test compounds were Investigated in fasted Beagle dogs.
Intravenous and oral administration of the test compound, in 5% glucose solution, was separated by a one-week washout.
Blood samples were collected immediately before drug administration (time zero) and than 0.08, 0.25, 0.50, 0.75, 1.0, 1.5. 2.0, 3.0, 4.0, 5.0, and 6.0 hours after administration.
The plasma samples were stored frozen (<-18°C) pending analysis.
An HPLC method with solid phase extraction and W detection was used for the quantification of the compound in plasma.
The pharmacokinetic parameters for the compounds were calculated by non-compartmental methods using the PC based pharmacokinetic software WinNonlin, version 1.1 (Scientific Consulting Inc., Apex, NC, USA).

For `CN(CCc1ccccn1)C(=O)[C@@H](Cc1ccccc1)N(C)C(=O)[C@@H](Cc1ccc2ccccc2c1)N(C)C(=O)/C=C/CC(C)(C)N` [Example 1, (2E)-5-Amino-5-methylhex-2-enoic acid N-methyl-N-[(1R)-1-(N-methyl-N-{(1R)-1-[N-methyl-N-(2-(2-pyridinyl)ethyl)carbamoyl]-2-phenylethyl}carbamoyl)-2-(2-naphthyl)ethyl]amide], the plasma half-life entry (administration in 5% glucose solution) was “shorter plasma half-life”. Besides, for the setting “oral vs intravenous administration in 5% glucose solution”, the oral bioavailability result was “better oral bioavailability”.
